Assay results from US10100077B2, “6-aryl-9-glycosylpurines and use thereof” (UNIVERZITA PALACKEHO V OLOMOUCI, priority 2014, dated 2018).

Experiments:
[1] = system: skin fibroblasts BJ and keratinocytes HaCaT; experiment: SRB in vitro toxicity test; type: cell-based; details: Homo sapiens, 72 hour treatment, maximal concentration 50 microM
Procedure, shortened: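 BJ fibroblasts and HaCaT keratinocytes were exposed for 72 h to sixfold-diluted compound (maximum 50 μM), with DMSO as vehicle. Cells were TCA-fixed and stained with SRB, and absorbance was read at 564 nm. IC50 was calculated from dose-response curves.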

[2] = Calcein AM cytotoxicity assay, MCF-7; type: cell-based; details: human, MCF-7 breast cancer cells
Procedure, shortened: (§1)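 K562, MCF-7 and NIH3T3 cells (10^4/well) in DMEM with 10% FBS were preincubated for 24 hrs, then given six 4-fold dilutions, usually from 166.7 μM, in duplicate for 72 hrs at 37° C. Viability was read by Calcein AM fluorescence after 1 hour, with GI50 from survival relative to control.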

[3] = Calcein AM cytotoxicity assay, NIH3T3; type: cell-based, mouse; details: mouse, NIH3T3 fibroblasts
Procedure, shortened: as §1

[4] = system: Normal human dermal fibroblasts (NHDF); experiment: In vitro UVB photoprotection test (neutral red); type: cell-based; details: UVB 400 mJ/cm^2, 0.9; 1.8; 3.9 a 7.8 μmol/l, 60 minutes pre-incubation
Excerpt: Normal human dermal fibroblasts (NHDF) were used as an in vitro model. Cells were isolated from tissue specimens obtained from healthy patients undergoing plastic surgery at the Department of Plastic and Aesthetic Surgery (University Hospital Olomouc). The use of skin tissue was in accordance with the Ethics Committee of the University Hospital and Faculty of Medicine and Dentistry, Palacký University, Olomouc and all patients signed written informed consent. Fibroblasts were used between the 2nd and 4th passage. For all experiments the fibroblasts were seeded onto 96-well plates at a density of 0.8×10^5 cells/ml (0.2 ml per well) of cultivation medium (DMEM supplemented with foetal calf serum (10%, v/v), penicillin […] and streptomycin (100 U/ml)).
Test compounds included 6-(3-methoxybenzylamino)-9-β-D-arabinofuranosylpurine. […] Intensity of UVA or UVB radiation was evaluated before each irradiation by UVA- or UVB-meter. […] After 24 hours (37° C., 5% CO2) cell damage was evaluated by neutral red (NR) incorporation into viable cells. […] After 5 minutes of intensive shaking absorbance was measured at 540 nm. […] Photoprotective effect was evaluated by comparison of experimental data (absorbance) of test compounds with a positive control and a negative control (according to the following equation: […]

COc1cccc(CNc2ncnc3c2ncn3[C@@H]2O[C@H](CO)[C@@H](O)[C@@H]2O)c1 [6-(3-methoxybenzylamino)-9-β-D-arabinofuranosylpurine]
IC50 [1]: > 50 µM | GI50 at 72 h [2]: > 100 µM | GI50 at 72 h [3]: > 100 µM | viability after UVB vs DMSO control (photoprotection) [4]: higher viability
